Each structure is given as a SMILES string. Where a SMILES comes first, the peptide text is derived from it.

The nature of data set [1]: method code SF-HPLC, from DOI: 10.1002/qsar.19900090302. As to conditions: pH 7.0.
A short description of data set [2]: method code SF-AS, from DOI: 10.1002/qsar.19900090302. As to conditions: pH 7.0.

Regarding `CC(=O)NCC(=O)N[C@@H](CC(C)C)C(N)=O`, in data set [1], the logD (commonly lipophilicity at a set pH, counting ionised and neutral species) is -0.78.
On the same count and under the same terms, the figure for `CC(=O)N[C@@H](CC(C)C)C(=O)N[C@@H](CC(N)=O)C(N)=O` is -1.3.
For the compound `CC(=O)N[C@@H](CO)C(=O)N[C@@H](Cc1ccccc1)C(N)=O`, the logD in data set [2] was -0.79.
Compound `CC(=O)N[C@@H](Cc1c[nH]c2ccccc12)C(=O)NCC(=O)N[C@@H](Cc1ccccc1)C(N)=O` came in with a log distribution coefficient (logD) in data set [2] of 0.99.
Take `CC(=O)N[C@@H](Cc1ccc(O)cc1)C(=O)N[C@H](C(N)=O)C(C)C`: the logD in data set [2] was -0.2.
On the same count and under the same terms, to `CC(=O)N[C@@H](Cc1ccccc1)C(=O)NCC(=O)N[C@@H](CC(C)C)C(N)=O` belongs 0.6; to `CC(=O)N[C@@H](Cc1ccccc1)C(=O)N[C@@H](CCC(N)=O)C(N)=O`, -1.03.
In turn, `CC(=O)N[C@H](C(=O)N[C@@H](C)C(=O)N[C@@H](C)C(N)=O)C(C)C` displayed a logD in data set [1] of -1.4.
On the same count and under the same terms, to `CC[C@H](C)[C@H](NC(=O)[C@@H](NC(=O)[C@H](C)NC(C)=O)C(C)C)C(N)=O` belongs -0.2.
In data set [2], `CC(=O)N[C@@H](C)C(=O)NCC(=O)N[C@@H](Cc1ccccc1)C(N)=O` (Ac-Ala-Gly-Phe-NH2) returned a logD of -0.71.
As for `CC(=O)N[C@@H](C)C(=O)N[C@@H](CC(C)C)C(N)=O` (Ac-Ala-Leu-NH2), the pH-dependent lipophilicity (logD) in data set [1] is -0.54.
On the same count and under the same terms, to `CC(=O)N[C@@H](C)C(=O)N[C@@H](CC(C)C)C(=O)N[C@H](C(N)=O)C(C)C` (Ac-Ala-Leu-Val-NH2) belongs -0.14.
Consider `CC(=O)N[C@@H](C)C(=O)N[C@@H](Cc1ccc(O)cc1)C(=O)N[C@@H](CC(C)C)C(N)=O` (Ac-Ala-Tyr-Leu-NH2), for which the logD in data set [2] is -0.04.
On the same count and under the same terms, the figure for `CC(=O)N[C@@H](C)C(=O)N[C@@H](Cc1ccc(O)cc1)C(=O)N[C@@H](Cc1ccccc1)C(N)=O` (Ac-Ala-Tyr-Phe-NH2) is 0.26.
Take `CC(=O)N[C@@H](C)C(=O)N[C@H](C(N)=O)C(C)C` (Ac-Ala-Val-NH2): the logD in data set [1] was -1.13.
On the same count and under the same terms, to `CC[C@H](C)[C@H](NC(=O)[C@H](CC(N)=O)NC(C)=O)C(N)=O` (Ac-Asn-Ile-NH2) belongs -1.43.
The compound `CC(=O)NC(CC(N)=O)C(=O)NC(Cc1ccccc1)C(N)=O` (stereo not drawn) (Ac-Asn-Phe-NH2; configuration not given here) yielded a logD in data set [2] of -1.14.
`CC(=O)NC(CC(N)=O)C(=O)NC(C(N)=O)C(C)C` (stereo not drawn) (Ac-Asn-Val-NH2; configuration not given here): the logD in data set [1] was -1.85.
The same measure, in the same setting: the figure for `CC(=O)NC(CCC(N)=O)C(=O)NC(CC(C)C)C(N)=O` (stereo not drawn) (Ac-Gln-Leu-NH2; configuration not given here) is -1.32.
Turning to `CC(=O)N[C@@H](CCC(N)=O)C(=O)N[C@@H](Cc1ccccc1)C(N)=O` (Ac-Gln-Phe-NH2), the logD in data set [2] is -1.14.
As to `CC(=O)NC(CCC(N)=O)C(=O)NC(C(N)=O)C(C)C` (stereo not drawn) (Ac-Gln-Val-NH2; configuration not given here), the logD in data set [1] is -1.85.
As for `CC(=O)NCC(=O)N[C@@H](C)C(=O)N[C@H](C(N)=O)C(C)C` (Ac-Gly-Ala-Val-NH2), the logD in data set [1] is -1.56.
In data set [1], `CC(=O)NCC(=O)N[C@@H](CC(C)C)C(=O)NCC(N)=O` (Ac-Gly-Leu-Gly-NH2) had a logD of -1.23.
In the case of `CC(=O)NCC(=O)N[C@@H](Cc1ccccc1)C(N)=O` (Ac-Gly-Phe-NH2), in data set [2], the logD is -0.56.
In data set [1], `CC(=O)NCC(=O)N[C@H](C(N)=O)C(C)C` (Ac-Gly-Val-NH2) showed a logD of -1.33.
Still for that read-out and setting: the figure for `CC[C@H](C)[C@H](NC(C)=O)C(=O)N[C@@H](CC(N)=O)C(N)=O` (Ac-Ile-Asn-NH2) is -1.41.
The compound `CC[C@H](C)[C@H](NC(C)=O)C(=O)N[C@@H](Cc1ccccc1)C(=O)N[C@@H](C)C(N)=O` (Ac-Ile-Phe-Ala-NH2) yielded a logD in data set [2] of 0.52.
With `CC[C@H](C)[C@H](NC(C)=O)C(=O)N[C@H](C(N)=O)C(C)C` (Ac-Ile-Val-NH2), the logD in data set [1] was determined as 0.16.
`CC[C@H](C)[C@H](NC(=O)[C@H](CC(C)C)NC(C)=O)C(N)=O` (Ac-Leu-Ile-NH2) returned a logD in data set [1] of 0.68.
In data set [2], `CC(=O)N[C@@H](CC(C)C)C(=O)N[C@@H](CO)C(=O)N[C@@H](Cc1ccccc1)C(N)=O` (Ac-Leu-Ser-Phe-NH2) registered a logD of 0.23.
For the compound `CC(=O)N[C@@H](CC(C)C)C(=O)N[C@H](C(=O)N[C@@H](CC(C)C)C(N)=O)[C@@H](C)O` (Ac-Leu-Thr-Leu-NH2), in data set [1], the logD was 0.24.
Still for that read-out and setting: the figure for `CC(=O)N[C@@H](CC(C)C)C(=O)N[C@H](C(N)=O)C(C)C` (Ac-Leu-Val-NH2) is 0.26.
For `CC(=O)N[C@@H](Cc1ccccc1)C(=O)NCC(N)=O` (Ac-Phe-Gly-NH2), the logD in data set [2] was -0.5.
Compound `CC[C@H](C)[C@H](NC(=O)[C@H](Cc1ccccc1)NC(C)=O)C(=O)NCC(N)=O` (Ac-Phe-Ile-Gly-NH2) showed a logD in data set [2] of 0.34.
Take `CC(=O)N[C@@H](Cc1ccccc1)C(=O)N[C@H](C(N)=O)C(C)C` (Ac-Phe-Val-NH2): in data set [2], the logD is 0.43.
Consider `CC(=O)N[C@@H](CO)C(=O)N[C@H](C(N)=O)C(C)C` (Ac-Ser-Val-NH2), for which, in data set [1], the logD was -1.53.
`CC[C@H](C)[C@H](NC(=O)[C@@H](NC(C)=O)[C@@H](C)O)C(N)=O` (Ac-Thr-Ile-NH2) showed a logD in data set [1] of -0.86.
Same read-out and setting: the figure for `CC(=O)N[C@H](C(=O)N[C@H](C(N)=O)C(C)C)[C@@H](C)O` (Ac-Thr-Val-NH2) is -1.25.
`CC(=O)N[C@@H](Cc1c[nH]c2ccccc12)C(=O)N[C@@H](C)C(=O)N[C@@H](C)C(N)=O` (Ac-Trp-Ala-Ala-NH2) registered a logD in data set [2] of -0.31.
The compound `CC(=O)N[C@@H](Cc1c[nH]c2ccccc12)C(=O)N[C@@H](C)C(=O)N[C@H](C(N)=O)C(C)C` (Ac-Trp-Ala-Val-NH2) returned a pH-dependent lipophilicity (logD) in data set [2] of 0.36.
Still for that read-out and setting: the figure for `CC[C@H](C)[C@H](NC(=O)[C@H](Cc1c[nH]c2ccccc12)NC(C)=O)C(=O)NCC(N)=O` (Ac-Trp-Ile-Gly-NH2) is 0.62; for `CC(=O)N[C@@H](Cc1c[nH]c2ccccc12)C(=O)N[C@H](C(N)=O)C(C)C` (Ac-Trp-Val-NH2) it is 0.73; for `CC(=O)N[C@@H](Cc1ccc(O)cc1)C(=O)N[C@@H](CC(C)C)C(N)=O` (Ac-Tyr-Leu-NH2) it is 0.32.
In data set [2], `CC(=O)N[C@@H](Cc1ccc(O)cc1)C(=O)N[C@@H](Cc1ccccc1)C(N)=O` (Ac-Tyr-Phe-NH2) displayed a logD of 0.54.
On to `CC(=O)N[C@H](C(=O)N[C@@H](C)C(N)=O)C(C)C` (Ac-Val-Ala-NH2), for which, in data set [1], the logD was -1.14.
`CC(=O)N[C@H](C(=O)N[C@@H](C)C(=O)N[C@H](C(N)=O)C(C)C)C(C)C` (Ac-Val-Ala-Val-NH2): the log distribution coefficient (logD) in data set [1] was -0.67.
In data set [1], `CC(=O)NC(C(=O)NC(CCC(N)=O)C(N)=O)C(C)C` (stereo not drawn) (Ac-Val-Gln-NH2; configuration not given here) yielded a logD of -1.82.
`CC[C@H](C)[C@H](NC(=O)[C@@H](NC(C)=O)C(C)C)C(=O)NCC(N)=O` (Ac-Val-Ile-Gly-NH2) yielded a logD in data set [1] of -0.45.
In data set [2], `CC(=O)N[C@H](C(=O)N[C@@H](Cc1ccccc1)C(=O)N[C@@H](C)C(N)=O)C(C)C` (Ac-Val-Phe-Ala-NH2) returned a logD of 0.06.
As for `CC[C@H](C)[C@H](NC(=O)[C@@H](NC(=O)[C@@H](NC(C)=O)C(C)C)C(C)C)C(N)=O` (Ac-Val-Val-Ile-NH2), the logD in data set [1] was 0.49.
Same read-out and setting: to `CC(=O)N[C@H](C(=O)N[C@H](C(N)=O)C(C)C)C(C)C` (Ac-Val-Val-NH2) belongs -0.32.

(Values after the SangsterLogP compilation.)
